From patent US20090299044A1 (priority 2006, published 2009)
Bridge positions count the residues as written; N and C are the ends. Square brackets hold non-standard residues; d marks the D form. Peptide text beside a SMILES is read from it. 1Nal = N[C@@H](Cc1cccc2ccccc12)C(=O)O

Legend:
human Kv1.3 (CHO) = target: T1, human Kv1.3 (CHO) (Homo sapiens, UniProt P22001); assay: cell-based
T1 construct: expressed in transfected cells; host or cells: CHO

human Kv1.1 (HEK293) = target: T2, human Kv1.1 (HEK293) (Homo sapiens, UniProt Q09470); assay: cell-based
T2 construct: expressed in transfected cells; host or cells: HEK293
T2 sequence (Q09470 whole entry): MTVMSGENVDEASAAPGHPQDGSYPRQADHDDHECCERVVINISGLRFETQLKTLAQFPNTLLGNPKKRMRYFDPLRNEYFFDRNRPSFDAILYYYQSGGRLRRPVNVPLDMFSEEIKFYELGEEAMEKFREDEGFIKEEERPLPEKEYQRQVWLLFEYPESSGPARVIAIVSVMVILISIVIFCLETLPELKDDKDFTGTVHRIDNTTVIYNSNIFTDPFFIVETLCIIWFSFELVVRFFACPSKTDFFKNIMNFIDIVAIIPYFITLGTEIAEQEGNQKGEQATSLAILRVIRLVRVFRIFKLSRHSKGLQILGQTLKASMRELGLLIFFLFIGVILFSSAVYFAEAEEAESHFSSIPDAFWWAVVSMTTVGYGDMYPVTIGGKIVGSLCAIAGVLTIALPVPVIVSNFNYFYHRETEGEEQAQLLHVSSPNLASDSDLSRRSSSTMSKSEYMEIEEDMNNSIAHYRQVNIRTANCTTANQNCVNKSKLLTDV

T1 sequence (P22001 whole entry): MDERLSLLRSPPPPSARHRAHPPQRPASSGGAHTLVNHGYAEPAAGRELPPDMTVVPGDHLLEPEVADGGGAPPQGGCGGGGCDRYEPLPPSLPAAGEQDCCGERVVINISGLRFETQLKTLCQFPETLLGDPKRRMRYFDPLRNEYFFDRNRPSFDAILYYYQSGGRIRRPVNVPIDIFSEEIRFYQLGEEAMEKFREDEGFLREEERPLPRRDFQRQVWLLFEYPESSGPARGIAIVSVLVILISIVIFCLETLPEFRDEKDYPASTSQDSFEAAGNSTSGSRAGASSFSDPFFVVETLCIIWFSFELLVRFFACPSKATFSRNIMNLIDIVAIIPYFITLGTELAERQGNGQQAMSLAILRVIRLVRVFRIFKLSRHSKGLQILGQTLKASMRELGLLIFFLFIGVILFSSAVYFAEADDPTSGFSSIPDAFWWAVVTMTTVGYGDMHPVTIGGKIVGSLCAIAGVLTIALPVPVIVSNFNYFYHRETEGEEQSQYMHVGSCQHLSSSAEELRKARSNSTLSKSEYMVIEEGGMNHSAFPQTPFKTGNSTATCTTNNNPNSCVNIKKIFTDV

Compound	IC50 (human Kv1.3 (CHO))	IC50 (human Kv1.1 (HEK293))
CC[C@H](C)[C@@H]1NC(=O)[C@H](CCCCN)NC(=O)[C@@H](NC(=O)[C@H](CCCCN)NC(=O)[C@@H](NC(=O)[C@H](CC(N)=O)NC(=O)[C@@H](NC(=O)[C@@H](NC(=O)[C@@H](NC(=O)CN)C(C)C)[C@@H](C)CC)[C@@H](C)CC)C(C)C)CSSC[C@@H]2NC(=O)[C@H](CCCCN)NC(=O)CNC(=O)[C@H](Cc3ccccc3)NC(=O)[C@H](CCCNC(=N)N)NC(=O)[C@H](CCSC)NC(=O)CNC(=O)[C@H](C)NC(=O)[C@H](CCCCN)NC(=O)[C@H](CCCCN)NC(=O)[C@@H]3CSSC[C@@H](C(=O)N[C@H](C(=O)N4CCC[C@H]4C(=O)N[C@@H](CCCNC(=N)N)C(=O)O)[C@@H](C)O)NC(=O)[C@H](Cc4c[nH]cn4)NC(=O)[C@H](CSSC[C@H](NC(=O)[C@H](CCC(N)=O)NC(=O)[C@H](CCCNC(=N)N)NC(=O)[C@H](CO)NC1=O)C(=O)N[C@@H](CC(C)C)C(=O)N[C@@H](CCC(=O)O)C(=O)N1CCC[C@H]1C(=O)N3)NC(=O)[C@H](CCCCN)NC(=O)CNC(=O)[C@H](CC(N)=O)NC(=O)[C@H](CCSC)NC2=O [K38R] (H-GVIINVKCKISRQCLEPCKKAGMRFGKCMNGKCHCTPR-OH; disulfide 8-28, 14-33, 18-35)	0.015 nM	0.00184 nM
CC[C@H](C)[C@@H]1NC(=O)[C@H](CCCCN)NC(=O)[C@@H](NC(=O)[C@H](CCCCN)NC(=O)[C@@H](NC(=O)[C@H](CC(N)=O)NC(=O)[C@@H](NC(=O)[C@@H](NC(=O)[C@@H](NC(=O)CN)C(C)C)[C@@H](C)CC)[C@@H](C)CC)C(C)C)CSSC[C@@H]2NC(=O)[C@H](CCCCN)NC(=O)CNC(=O)[C@H](Cc3ccccc3)NC(=O)[C@H](CCCNC(=N)N)NC(=O)[C@H](CCSC)NC(=O)CNC(=O)[C@H](C)NC(=O)[C@H](CCCCN)NC(=O)[C@H](CCCCN)NC(=O)[C@@H]3CSSC[C@@H](C(=O)N[C@H](C(=O)N4CCC[C@H]4C(=O)N[C@@H](CCCCN)C(=O)O)[C@@H](C)O)NC(=O)[C@H](Cc4c[nH]cn4)NC(=O)[C@H](CSSC[C@H](NC(=O)[C@H](CCC(N)=O)NC(=O)[C@H](CCCNC(=N)N)NC(=O)[C@H](CO)NC1=O)C(=O)N[C@@H](C)C(=O)N[C@@H](CCC(=O)O)C(=O)N1CCC[C@H]1C(=O)N3)NC(=O)[C@H](CCCCN)NC(=O)CNC(=O)[C@H](CC(N)=O)NC(=O)[C@H](CCSC)NC2=O [L15A] (H-GVIINVKCKISRQCAEPCKKAGMRFGKCMNGKCHCTPK-OH; disulfide 8-28, 14-33, 18-35)	0.0431 nM	0.015 nM
CC[C@H](C)[C@@H]1NC(=O)[C@H](CCCCN)NC(=O)[C@@H](NC(=O)[C@H](CCCCN)NC(=O)[C@@H](NC(=O)[C@H](CC(N)=O)NC(=O)[C@@H](NC(=O)[C@@H](NC(=O)[C@@H](NC(=O)CN)C(C)C)[C@@H](C)CC)[C@@H](C)CC)C(C)C)CSSC[C@@H]2NC(=O)[C@H](CCCCN)NC(=O)CNC(=O)[C@H](Cc3ccccc3)NC(=O)[C@H](CCCNC(=N)N)NC(=O)[C@H](CCSC)NC(=O)CNC(=O)[C@H](C)NC(=O)[C@H](CCCCN)NC(=O)[C@H](CCCCN)NC(=O)[C@@H]3CSSC[C@@H](C(=O)N[C@H](C(=O)N4CCC[C@H]4C(=O)N[C@@H](CCCCN)C(=O)O)[C@@H](C)O)NC(=O)[C@H](Cc4c[nH]cn4)NC(=O)[C@H](CSSC[C@H](NC(=O)[C@H](CCC(N)=O)NC(=O)[C@H](CCCNC(=N)N)NC(=O)[C@H](CO)NC1=O)C(=O)N[C@@H](Cc1cccc4ccccc14)C(=O)N[C@@H](CCC(=O)O)C(=O)N1CCC[C@H]1C(=O)N3)NC(=O)[C@H](CCCCN)NC(=O)CNC(=O)[C@H](CC(N)=O)NC(=O)[C@H](CCSC)NC2=O [L15Nal] (H-GVIINVKCKISRQC[1Nal]EPCKKAGMRFGKCMNGKCHCTPK-OH; disulfide 8-28, 14-33, 18-35)	0.0178 nM	< 0.00152 nM
